Where two headings read alike, the source gives them in different places.
How the values were obtained:
[1] = female, human, in vivo
Description: (§1) Doxorubicin (60 mg/m^2) was administered as an IV infusion over 5–10 minutes followed by an infusion of cyclophosphamide 600 mg/m^2 over 30–60 minutes every two weeks for a total of four cycles (cumulative doxorubicin 240 mg/m^2). All subjects received aprepitant, dexamethasone and palonsetron prior to each infusion of doxorubicin. All subjects received pegfilgrastim subcutaneously 24–72 hours after doxorubicin and cyclophosphamide.
(§2) This was a randomized, cross-over, single-blinded drug-drug interaction study. All patients received one cycle of AC chemotherapy with enalapril and another cycle of AC with placebo (without enalapril). The two study cycles were consecutive. Patients were randomized to the enalapril intervention or placebo in cycle 1 with cross-over in the subsequent cycle. They began 5 mg of enalapril daily on day −6, and then increased to 10 mg daily on day −2, prior to doxorubicin administration on day 1.
(§3) Blood samples for pharmacokinetics (doxorubicin and doxorubicinol) were obtained in each subject twice (one cycle with enalapril and one with placebo). Samples were drawn at baseline (immediately prior to start of doxorubicin) and then at 0.5, 1, 2, 4, 24 and 48 hours after the end of infusion. Five milliliters of blood was collected at each sampling time and placed in an EDTA tube for doxorubicin and doxorubicinol analysis. Each sample of whole blood was immediately inverted 10 times, placed on wet ice, centrifuged at 3400 rpm for 10 minutes at 4 degrees C, plasma separated and frozen to −80 degrees C within 15 minutes of collection. Samples remained frozen at −80 degrees C until time of analysis. Samples were batched at the time of analysis.
(§4) Doxorubicin and doxorubicinol plasma concentration-time data were analyzed using noncompartmental methods (WinNonLin Professional 6.3). Area-under-the-curve (AUC) (0-∞) was estimated by the log/linear trapezoidal method as AUC (0-t*) + C(t*)/Ke where C(t*) was the last observed concentration and Ke is the terminal first order elimination rate constant. Ke was calculated as the slope of the linear portion of the log of plasma-concentration vs time curve using linear regression analysis. Cmax was at the highest observed concentration.
(§5) The chromatographic separation was performed with a Waters UPLC BEH C18, 2.1 × 50 mm, reversed phase column with a 1.7-micron particle size (Waters, Milford, MA). The mobile phase used for gradient elution consisted of (A) 5 mM ammonium acetate in water, pH 3.5 (B) methanol. […] The column temperature was maintained at 35°C. […] The collision energy was 14 eV, 12 eV and 25 eV, respectively. […] Cartridges were conditioned with 1 mL methanol followed by 1 mL DI water (18 Mohm.cm, type 1). The cartridges were loaded with the samples and centrifuged at 83 × g for 5 minutes and then washed with 1 mL distilled ionized water, centrifuged and transferred to a vacuum manifold for 5 minutes, and eluted with 1 mL methanol. The eluent was evaporated to dryness using a nitrogen evaporator (Zymark Turbo Vap LV, Hopkinton, MA) set at 37°C, and reconstituted in 100 μL of mobile phase (A:B, 45:55). Doxorubicin and doxorubicinol were obtained from Toronto Research Chemicals (Toronto, Ontario, CAN). Daunorubicin was obtained from Sigma-Aldrich (St. Louis, MO). The assays are linear in the range of 1 – 1,000 ng/mL. […] The lower limit of quantification for both analytes is 1 ng/mL.
(§6) The confidence interval is a measure of the precision of the exposure ratio estimate.

[2] = cited from earlier work; for Incidence of symptomatic heart failure: ref Singal and Iliskovic [1998], Yeh et al. [2004], Muggia and Speyer [1999]; for Incidence of asymptomatic declines in ejection fraction: up to, ref Lenihan and Cardinale [2012]
clinical = conditions: female, human, in vivo
Description: as §1, §2, §3, §4, §5, §6

[3] = Doxorubicin and doxorubicinol plasma pharmacokinetics with and without enalapril (randomized cross-over drug-drug interaction study); conditions: for AUC(0-∞) geometric mean ratio (90% CI) / Cmax geometric mean ratio (90% CI): with versus without enalapril; for Cmax: geometric mean ± standard error, 17 women
Description: as §1, §2, §3, §4, §5, §6

[4] = Safety / adverse events in the enalapril-doxorubicin interaction study; format: in vivo, women with breast cancer; conditions: enalapril 5 then 10 mg daily with doxorubicin and cyclophosphamide
Description: The two study cycles were consecutive. […] There were no serious or grade 3 or 4 adverse events. The most commonly reported drug-related adverse event was dizziness with 33% experiencing grade 1 dizziness. No clinical cardiac events occurred.

[5] = design: method as in Cardinale et al. [2006]; conditions: 12 months after therapy; enalapril 20 mg daily; patients with troponin elevation; placebo 48.3%, p < 0.001; ref Cardinale et al. [2006]; cited from earlier work

| AUC0-∞ ([3]; with enalapril 10 mg daily, doxorubicin 60 mg/m^2 IV, plasma, Table 3 geometric mean ± standard error, text mean (standard error)) [ng·h/mL] | Cmax ([3]; with enalapril 10 mg daily, doxorubicin 60 mg/m^2 IV, plasma) [ng/mL] | AUC0-∞ ([3]; with enalapril exposure, abstract, Mean (SD)) | AUC0-∞ ([3]; without enalapril (placebo cycle), doxorubicin 60 mg/m^2 IV, plasma, Table 3 geometric mean ± standard error, text mean (standard error)) [ng·h/mL] | AUC0-∞ ([3]; without enalapril (placebo cycle), doxorubicin 60 mg/m^2 IV, plasma, Table 3 geometric mean ± standard error, text mean (standard error), listed as doxorubicinol) | Cmax ([3]; without enalapril (placebo cycle), doxorubicin 60 mg/m^2 IV, plasma) [ng/mL] | AUC0-∞ ([3]; without enalapril, abstract, Mean (SD)) | SMILES | AUC0-∞ [1] | Incidence of symptomatic heart failure ([2]; cumulative doses of 400–500 mg/m^2) | Incidence of symptomatic heart failure ([2]; cumulative doses ≥ 600 mg/m^2) | Incidence of asymptomatic declines in ejection fraction ([2]; higher doses) | Incidence of asymptomatic declines in ejection fraction ([2]; moderate doses (240–400 mg/m^2)) | AUC(0-inf) (clinical; AUC0-∞) [ng·h/mL] | AUC(0-inf) (clinical; iv, 60 mg/m2, AUC(0-∞)) [ng·h/mL] | 90% CI for Cmax geometric mean ratio ([3]; reanalysis removing the outlier Cmax (subject with body mass index 53 kg/m^2)) | AUC(0-∞) geometric mean ratio (90% CI) [3] | Cmax geometric mean ratio (90% CI) [3] | Subjects with grade 1 dizziness [4] [%] | Left ventricular ejection fraction [5] [%] |
| --- | --- | --- | --- | --- | --- | --- | --- | --- | --- | --- | --- | --- | --- | --- | --- | --- | --- | --- | --- |
|  |  |  |  |  |  |  | COc1cccc2c1C(=O)c1c(O)c3c(c(O)c1C2=O)C[C@@](O)(C(=O)CO)C[C@@H]3O[C@H]1C[C@H](N)[C@H](O)[C@H](C)O1 [Doxorubicin] | 1167.73 (45.26) hr*ng/ml | 3-4% | more than 30% | 30-35% | 20-25% | 1190 | 1640 | 0.94-1.21 | 1.02(0.96-1.08) | 1.19(0.94-1.51) |  |  |
| 1040 ± 80.6 | 27.81 ± 3.59 | 1040 (80.6) hr*ng/ml | 1056.32 ± 92.03 | 1056.3 (92.0) ng-hr/mL | 29.66 ± 4.68 | 1056.32 (92.03) hr*ng/ml | COc1cccc2c1C(=O)c1c(O)c3c(c(O)c1C2=O)C[C@@](O)([C@@H](O)CO)C[C@@H]3O[C@H]1C[C@H](N)[C@H](O)[C@H](C)O1 [Doxorubicinol, doxorubicinol] |  |  |  |  |  |  |  |  | 0.96(0.88-1.05) | 0.99(0.91-1.08) |  |  |
|  |  |  |  |  |  |  | CCOC(=O)[C@H](CCc1ccccc1)N[C@@H](C)C(=O)N1CCC[C@H]1C(=O)O [Enalapril, enalapril] |  |  |  |  |  |  |  |  |  |  | 33 | 62.8 |

— article PMC4309801, “Angiotensin Converting Enzyme Inhibitors (ACEI) and doxorubicin pharmacokinetics in women receiving adjuvant breast cancer treatment” (SpringerPlus, 2015)
